Experiment [1] concerns the target T1, hH3R (human histamine H3 receptor) (Homo sapiens, UniProt Q9Y5N1).
T1 construct: gene HRH3; transiently transfected cDNA, HEK293T cell homogenates
In words: [3H]NAMH displacement, cell homogenates. It counts as biochemical.

Experiment [2] has as its target T2, Nanoluc-H4R (histamine H4 receptor) (Homo sapiens, UniProt Q9H3N8).
T2 construct: gene HRH4; NanoLuc reporter fusion (Nluc-H4R); details not in the main text
In words: NanoBRET displacement of clobenpropit-BODIPY. To be noted: fluorescent tracer clobenpropit-BODIPY. Type of experiment: cell-based. (Bioluminescence resonance energy transfer reports proximity on the nanometre scale.)

Experiment [3] deals with T1, hH3R (human histamine H3 receptor). The experiment is described as follows: […]GTPγS binding, cell homogenates. It counts as biochemical.
Experiment [4] has the same target. The experiment is described as follows: […]GTPγS binding, cell homogenates. Type of experiment: biochemical. This is another data set of the same source. In general terms: GTPγS is a poorly hydrolysed GTP analogue; its binding reports G protein activation.

The values below come from PMC6943558, “Covalent Inhibition of the Histamine H3 Receptor” (Molecules, 2019).

By IC50 is commonly meant the concentration at which inhibition is half-maximal. What is called EC50 is the concentration that produces a half-maximal response. Higher therefore signals a less potent agent.

Read-outs that look alike come from different tables or passages of the source.

T1 sequence (Q9Y5N1 whole entry): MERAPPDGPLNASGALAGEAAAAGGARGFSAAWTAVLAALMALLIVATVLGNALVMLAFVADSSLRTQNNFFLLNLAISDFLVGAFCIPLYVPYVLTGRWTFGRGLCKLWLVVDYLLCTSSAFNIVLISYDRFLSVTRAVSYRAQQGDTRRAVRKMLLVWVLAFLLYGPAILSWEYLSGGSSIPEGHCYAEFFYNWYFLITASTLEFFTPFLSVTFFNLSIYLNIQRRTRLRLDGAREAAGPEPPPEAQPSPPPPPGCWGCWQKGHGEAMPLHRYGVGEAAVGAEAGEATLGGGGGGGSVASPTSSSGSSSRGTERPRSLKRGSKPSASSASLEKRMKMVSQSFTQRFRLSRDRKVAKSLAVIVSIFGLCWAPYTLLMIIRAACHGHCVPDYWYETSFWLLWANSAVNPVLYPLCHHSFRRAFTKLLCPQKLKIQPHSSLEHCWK
T2 sequence (Q9H3N8 whole entry, the tested form may be a part): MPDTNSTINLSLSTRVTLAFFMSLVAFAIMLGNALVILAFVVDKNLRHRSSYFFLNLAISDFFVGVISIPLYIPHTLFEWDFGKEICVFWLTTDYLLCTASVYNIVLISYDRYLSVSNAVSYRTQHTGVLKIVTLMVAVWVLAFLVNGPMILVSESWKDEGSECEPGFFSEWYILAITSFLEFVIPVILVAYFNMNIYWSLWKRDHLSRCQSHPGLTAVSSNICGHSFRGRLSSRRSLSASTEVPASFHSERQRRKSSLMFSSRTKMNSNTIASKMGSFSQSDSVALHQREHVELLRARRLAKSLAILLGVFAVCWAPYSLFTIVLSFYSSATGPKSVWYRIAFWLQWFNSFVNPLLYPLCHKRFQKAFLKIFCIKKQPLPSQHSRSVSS

With `C=Cc1nc(-c2ccccc2)cc(N2CCN(C)CC2)n1` [compound 1, VUF14480], in experiment [1] (read-out: pKi (converted)), the Ki was more than 10000 nM.
The same measure, in the same setting: the same measure for `Cc1nc(-c2ccccc2)cc(N2CCN(C)CC2)n1` [compound 2, 2]: 79.4 nM.
Still for that read-out and setting: the same measure for `CC(C)c1cc(N2CC(N(C)C)C2)nc(N)n1` [compound 10, 10]: 50.1 nM; for `CC(C)c1cc(N2CCN(C3CCC3)CC2)nc(N)n1` [compound 11, 11]: 200 nM.
Still for that read-out and setting: in the case of `Cc1cc(N2CCN(C3CCC3)CC2)nc(N)n1` [compound 12, 12] it was 316 nM; in that of `C#Cc1nc(C)cc(N2CCN(C3CCC3)CC2)n1` [compound 20, 20], more than 10000 nM.
As for `C=Cc1nc(C(C)C)cc(N2CC(N(C)C)C2)n1` [compound 21, 21], in experiment [1] (read-out: pKi (converted)), the Ki was more than 10000 nM.
Turning to `C=Cc1nc(C(C)C)cc(N2CCN(C3CCC3)CC2)n1` [compound 22, 22], the Ki in experiment [1] (read-out: pKi (converted)) was 3160 nM.
Same read-out and setting: the same measure for `C=Cc1nc(C)cc(N2CCN(C3CCC3)CC2)n1` [compound 23, 23]: 3980 nM.
On the same count and under the same terms, the same measure for `Cc1nc(C(C)C)cc(N2CC(N(C)C)C2)n1` [compound 34, 34]: more than 10000 nM; for `CCc1nc(C(C)C)cc(N2CC(N(C)C)C2)n1` [compound 35, 35]: more than 10000 nM; for `Cc1nc(C(C)C)cc(N2CCN(C3CCC3)CC2)n1` [compound 36, 36]: 1260 nM.
Still for that read-out and setting: in the case of `CCc1nc(C(C)C)cc(N2CCN(C3CCC3)CC2)n1` [compound 37, 37] it was 3160 nM.
Take `Nc1cccc(N2CCN(C3CCC3)CC2)c1` [compound 42, 3-(4-Cyclobutylpiperazin-1-yl)aniline]: in experiment [1] (read-out: pKi (converted)), the Ki is 1260 nM. The “no tracer displacement up to 10 μM” value in experiment [2] is more than 10 µM.
Regarding `O=C(CCl)Nc1cccc(N2CCN(C3CCC3)CC2)c1` [compound 43, 43], in experiment [1] (read-out: pKi (converted)), the Ki is 631 nM.
With `S=C=Nc1cccc(N2CCN(C3CCC3)CC2)c1` [compound 44, 1-Cyclobutyl-4-(3-isothiocyanatophenyl)piperazine], the Ki in experiment [1] (read-out: pKi (converted)) was 316 nM. Moreover, the “no tracer displacement up to 10 μM” value in experiment [2] is listed as more than 10 µM. Also, the 50% inhibitory concentration (IC50) in experiment [3] was 794 nM. In addition, the EC50 in experiment [4] was 79.4 nM.
For the compound `NCCc1c[nH]cn1` [histamine], the Ki entry in experiment [1] (50 mM Tris-HCl pH 7.4, 25 °C, vehicle-pretreated homogenates) is “Radioligand displacement curves of [^3H]NAMH with histamine on cell homogenates”.
